Assay results from US11950592B2, “Method for enhancing plant disease controlling effects of aryl phenyl ketone fungicide, and method for controlling plant diseases” (ISHIHARA SANGYO KAISHA, LTD., priority 2016, dated 2024).

Columns and labels:
Assay type in all cases: in vivo
Sphaerotheca fuliginea [1] = experiment: Test Example 9: curative effect against cucumber powdery mildew; conditions: no addition
Experimental: (§1) Cucumber (cultivar: Sagamihanjiro Fushinari) was cultivated in a polyethylene pot having a diameter of 7.5 cm, and when the cucumber reached 1.5 leaf stage, the leaf adaxial surface was sprayed and inoculated with a suspension of conidia of Sphaerotheca fuliginea, the cucumber was cultivated in a room at 20° C. under the light for 3 days, and a chemical solution containing pyriofenone (dosage: 90 g ai/ha) or metrafenone (300 g ai/ha) prepared with an aqueous solution containing each product (0.005 to 1.0 v/v°/0) was applied (amount of solution applied: 800 L/ha) to the leaf adaxial surface by a spray gun. After the chemical solution dried, the cucumber was cultivated in a room at 20° C. under the light for 7 days. The lesion area ratio on the first leaf was examined, and the control value was calculated based on the following formula. Control value=(1−a/b)×100
(§2) a: lesion area ratio in treated plot, b: lesion area ratio in non-treated plot

Sphaerotheca fuliginea [2] = experiment: Test Example 5: curative effect against cucumber powdery mildew; conditions: no addition
Experimental: as §1, with “(0.025” for “(0.005”, “4.0” for “1.0”
as §2

Sphaerotheca fuliginea [3] = experiment: Test Example 8: curative effect against cucumber powdery mildew; conditions: no addition
Experimental: as §1, with “(0.001” for “(0.005”, “5.0” for “1.0”
as §2

Sphaerotheca fuliginea [4] = experiment: Test Example 6: curative effect against cucumber powdery mildew; conditions: no addition
Experimental: as §1, with “product (0.01” for “product (0.005”, “to 5.0” for “to 1.0”, “for 6” for “for 7”
as §2

Sphaerotheca fuliginea [5] = experiment: Test Example 7: curative effect against cucumber powdery mildew; conditions: no addition
Experimental: as §1, with “product (0.02” for “product (0.005”, “to 0.07” for “to 1.0”, “for 5” for “for 7”
as §2

Sphaerotheca fuliginea [6] = experiment: Test Example 10: penetration effect against cucumber powdery mildew; conditions: pyriofenone 90 g ai/ha, no addition
Experimental: (§3) Cucumber (cultivar: Sagamihanjiro Fushinari) was cultivated in a polyethylene pot having a diameter of 7.5 cm, and when the cucumber reached 1.5 leaf stage, a chemical solution containing pyriofenone (dosage: 90 g ai/ha) prepared with an aqueous solution containing each product (0.015 to 4.0 v/v %) was applied (amount of solution applied: 800 L/ha) to the leaf adaxial surface by a spray gun. After the chemical solution dried, the cucumber was cultivated in a room at 20° C. under the light for 4 days, the leaf abaxial surface was sprayed and inoculated with a suspension of conidia of Sphaerotheca fuliginea, and the cucumber was cultivated in a room at 20° C. under the light for 8 days. The lesion area ratio on the abaxial side of the first leaf was examined, and the control value was calculated based on the following formula. Control value=(1−a/b)×100
as §2

Sphaerotheca fuliginea [7] = experiment: Test Example 4: curative effect against cucumber powdery mildew; conditions: pyriofenone 90 g ai/ha, no addition
Experimental: (§4) Cucumber (cultivar: Sagamihanjiro Fushinari) was cultivated in a polyethylene pot having a diameter of 7.5 cm, and when the cucumber reached 1.5 leaf stage, the leaf adaxial surface was sprayed and inoculated with a suspension of conidia of Sphaerotheca fuliginea, the cucumber was cultivated in a room at 20° C. under the light to for 3 days, and a chemical solution containing pyriofenone prepared with an aqueous solution containing each product (0.025 to 0.25 v/v°/0) was applied (dosage: 90 g ai/ha, amount of solution applied: 800 L/ha) to the leaf adaxial surface by a spray gun. After the chemical solution dried, the cucumber was cultivated in a greenhouse for 4 days and then cultivated in a room at 20° C. under the light for 5 days. The lesion area ratio on the first leaf was examined, and the control value was calculated based on the following formula. Control value=(1−a/b)×100
as §2

Sphaerotheca fuliginea [8] = experiment: Test Example 13: penetration effect against cucumber powdery mildew; conditions: pyriofenone 90 g ai/ha, no addition
Experimental: Cucumber (cultivar: Sagamihanjiro Fushinari) was cultivated in a polyethylene pot having a diameter of 7.5 cm, and when the cucumber reached 1.5 leaf stage, a chemical solution containing pyriofenone (dosage: 90 g ai/ha) prepared with an aqueous solution containing each product (0.015 to 1.0 v/v°/0) was applied (amount of solution applied: 800 L/ha) to the leaf adaxial surface by a spray gun. After the chemical solution dried, the cucumber was cultivated in a room at 20° C. under the light for 3 days, the leaf abaxial surface was sprayed and inoculated with a suspension of conidia of Sphaerotheca fuliginea, and the cucumber was cultivated in a room at 20° C. under the light for 7 days. The lesion area ratio on the abaxial side of the first leaf was examined, and the control value was calculated based on the following formula. Control value=(1−a/b)×100
as §2

Sphaerotheca fuliginea [9] = experiment: Test Example 2: curative effect against cucumber powdery mildew; conditions: pyriofenone 90 g ai/ha, no addition
Experimental: Cucumber (cultivar: Sagamihanjiro Fushinari) was cultivated in a polyethylene pot having a diameter of 7.5 cm, and when the cucumber reached 1.5 leaf stage, the leaf adaxial surface was sprayed and inoculated with a suspension of conidia of Sphaerotheca fuliginea, the cucumber was cultivated in a room at 20° C. under the light for 3 days, and a chemical solution containing pyriofenone prepared with an aqueous solution containing each product (0.5 v/v°/0) was applied (dosage: 90 g ai/ha, amount of solution applied: 800 L/ha) to the leaf adaxial surface by a spray gun. After the chemical solution dried, the cucumber was cultivated in a room at 20° C. under the light for 6 days. The lesion area ratio on the adaxial surface of the first leaf was examined, and the control value was calculated based on the following formula. In Tables, “no addition” means the above treatment without adding the component (b) (the same applies hereinafter). Control value=(1−a/b)×100
as §2

Sphaerotheca fuliginea [10] = experiment: Test Example 3: curative effect against cucumber powdery mildew; conditions: pyriofenone 90 g ai/ha, no addition
Experimental: as §4, with “light” for “light to”, “product (0.05” for “product (0.025”, “a” for “a greenhouse for 4 days and then cultivated in a”, “for 6” for “for 5”
as §2

Sphaerotheca fuliginea [11] = experiment: Test Example 1: curative effect against cucumber powdery mildew with different temperatures; conditions: pyriofenone 90 g ai/ha, no component (b)
Experimental: Cucumber (cultivar: Sagamihanjiro Fushinari) was cultivated in a polyethylene pot having a diameter of 7.5 cm, and when the cucumber reached 1.5 leaf stage, the leaf adaxial surface was sprayed and inoculated with a suspension of conidia of Sphaerotheca fuliginea, the cucumber was cultivated in a room at 20° C. or 28° C. under the light for 3 days, and a chemical solution containing pyriofenone was applied (dosage: 90 g ai/ha, amount of solution applied: 800 L/ha) to the leaf adaxial surface by a spray gun. After the chemical solution dried, the cucumber was cultivated in a room at 20° C. or 28° C. under the light for 6 days. The lesion area ratio on the adaxial surface of the first leaf was examined, and the control value was calculated based on the following formula. Control value=(1−a/b)×100
as §2

Sphaerotheca fuliginea [12] = experiment: Test Example 12: curative effect against cucumber powdery mildew; conditions: pyriofenone 90 g ai/ha, no addition
Experimental: as §3, with “stage, the leaf adaxial surface was sprayed and inoculated with a suspension of conidia of Sphaerotheca fuliginea, the cucumber was cultivated in a room at 20° C. under the light for 4 days, and” for “stage,”, “0.5” for “4.0”, “6” for “4 days, the leaf abaxial surface was sprayed and inoculated with a suspension of conidia of Sphaerotheca fuliginea, and the cucumber was cultivated in a room at 20° C. under the light for 8”, “on” for “on the abaxial side of”
as §2

Oidiopsis sicula Scalia = experiment: Test Example 11: curative effect against sweet pepper powdery mildew; conditions: no addition
Text: Sweet pepper (cultivar: Kyonami) was cultivated in a polyethylene pot having a diameter of 7.5 cm, and when the sweet pepper reached 8.5 leaf stage, the sweet pepper was dusted and inoculated with a suspension of conidia of Oidiopsis sicula Scalia, the sweet pepper was cultivated in a greenhouse under the light for 3 days, and a chemical solution containing pyriofenone (dosage: 90 g or 110 g ai/ha) prepared with an aqueous solution containing each product (0.07 to 4.0 v/v %) was applied (amount of solution applied: 600 L/ha) to the leaf adaxial surface by a spray gun. After the chemical solution dried, the cucumber was cultivated in a greenhouse under the light for 17 days. Each of eight lower leaves was investigated, and the disease severity was calculated in accordance with the following index. Further, the control value was calculated from the disease severity.
Disease index 0: No spore formation
Disease index 1: Formation of lesion (spores, foot cells, conidiogenous cells) is observed on the leaf abaxial side with an area of less than 10%.
Disease index 2: Formation of lesion (spores, foot cells, conidiogenous cells) is observed on the leaf abaxial side with an area of from 10% to 25%.
Disease index 3: Formation of lesion (spores, foot cells, conidiogenous cells) is observed on the leaf abaxial side with an area of from 26% to 50%. […]

| Structure (SMILES) | Control value Metrafenone (Sphaerotheca fuliginea [1]; metrafenone 300 g ai/ha) | Control value Metrafenone (Sphaerotheca fuliginea [2]; metrafenone 300 g ai/ha) | Control value Metrafenone (Sphaerotheca fuliginea [3]; metrafenone 300 g ai/ha) | Control value Metrafenone (Sphaerotheca fuliginea [4]; metrafenone 300 g ai/ha) | Control value Metrafenone (Sphaerotheca fuliginea [5]; metrafenone 300 g ai/ha) | Control value Pyriofenone (Sphaerotheca fuliginea [1]; pyriofenone 90 g ai/ha) | Control value Pyriofenone (Sphaerotheca fuliginea [2]; pyriofenone 90 g ai/ha) | Control value (Sphaerotheca fuliginea [6]) | Control value (Sphaerotheca fuliginea [7]) | Control value (Sphaerotheca fuliginea [8]) | Control value Pyriofenone (Sphaerotheca fuliginea [3]; pyriofenone 90 g ai/ha) | Control value (Sphaerotheca fuliginea [9]) | Control value (Sphaerotheca fuliginea [10]) | Control value Pyriofenone (Sphaerotheca fuliginea [4]; pyriofenone 90 g ai/ha) | Control value (Sphaerotheca fuliginea [11]; 20° C.) | Control value (Sphaerotheca fuliginea [11]; 28° C.) | Control value (Sphaerotheca fuliginea [12]) | Control value Pyriofenone (Sphaerotheca fuliginea [5]; pyriofenone 90 g ai/ha) | Control value Dosage (g ai/ha) 90 (Oidiopsis sicula Scalia; pyriofenone 90 g ai/ha) | Control value Dosage (g ai/ha) 110 (Oidiopsis sicula Scalia; pyriofenone 110 g ai/ha) |
| --- | --- | --- | --- | --- | --- | --- | --- | --- | --- | --- | --- | --- | --- | --- | --- | --- | --- | --- | --- | --- |
| COc1cc(C)c(C(=O)c2c(OC)ccc(Br)c2C)c(OC)c1OC [Metrafenone, metrafenone] | 75 | 65.7 | 60 | 60.2 | 65 | – | – | – | – | – | – | – | – | – | – | – | – | – | – | – |
| COc1cc(C)c(C(=O)c2c(OC)ncc(Cl)c2C)c(OC)c1OC [Pyriofenone, pyriofenone] | – | – | – | – | – | 70 | 63 | 12 | 30 | 40 | 65 | 55 | 55 | 71.6 | 53 | 80 | 68 | 65 | 7.6 | 6.1 |
